From paper PMC11969009 (Nature Communications, 2025)
Values joined by “and” are separate entries in the source; they are usually repeats but may differ in a detail not shown here. Equal entries are not always repeated. Where two headings read alike, the source gives them in different places.

What was measured:
[1] = molecular target: CYP2B6 (Homo sapiens, UniProt P20813); assay: biochemical
[2] = tested on: CYP3A4/5; details: human, microsomes, pH 7.4
[3] = tested on: CYP3A4/5; details: human, microsomes
[4] = tested on: CYP3A4/5; assay: in vitro; details: human, microsomes, pH 7.4, CYP3A4/5 IC50
[5] = tested on: CYP3A4/5; assay: in vitro; details: human, microsomes
[6] = tested on: SARS-CoV-2 clinical isolate VIC001; assay: microbe, parasite or virus in culture; format: cell-based; details: for EC50: Severe acute respiratory syndrome coronavirus 2, Vero
[7] = tested on: SARS-CoV-2 P2 strain; set-up: species or system C57BL/6 (WT) mice; details: mouse, in vivo
[8] = molecular target: T1, SARS-CoV-2 PLpro (Severe acute respiratory syndrome coronavirus 2, UniProt P0DTD1); assay: biochemical; set-up: inhibition of SARS-CoV-2 PLpro, UbRh dose-response replicate value: unit: %; details: for IC50: IC50 (UbRh) SARS-CoV-2 PLpro
[9] = molecular target: T1, SARS-CoV-2 PLpro; assay: cell-based; format: cell-based
[10] = molecular target: T1, SARS-CoV-2 PLpro
[11] = molecular target: CYP2C8 (Homo sapiens, UniProt P10632); details: microsomes
[12] = read-out: Antiviral EC50 (plaque assay)

CYP2C8, sequence (P10632 whole entry): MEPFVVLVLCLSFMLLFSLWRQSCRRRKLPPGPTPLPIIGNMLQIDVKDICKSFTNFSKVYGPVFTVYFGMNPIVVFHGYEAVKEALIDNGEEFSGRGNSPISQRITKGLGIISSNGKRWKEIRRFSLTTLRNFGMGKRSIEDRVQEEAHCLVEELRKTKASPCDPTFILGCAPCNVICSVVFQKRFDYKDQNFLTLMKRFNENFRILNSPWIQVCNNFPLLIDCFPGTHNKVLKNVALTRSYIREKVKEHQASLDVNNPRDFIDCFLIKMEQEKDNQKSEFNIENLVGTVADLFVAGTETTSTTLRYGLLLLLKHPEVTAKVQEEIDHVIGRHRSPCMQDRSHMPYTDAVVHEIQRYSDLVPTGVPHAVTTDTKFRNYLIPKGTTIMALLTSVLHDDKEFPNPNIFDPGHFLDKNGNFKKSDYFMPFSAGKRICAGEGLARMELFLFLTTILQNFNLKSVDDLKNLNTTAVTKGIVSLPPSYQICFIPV
CYP2B6, sequence (P20813 whole entry): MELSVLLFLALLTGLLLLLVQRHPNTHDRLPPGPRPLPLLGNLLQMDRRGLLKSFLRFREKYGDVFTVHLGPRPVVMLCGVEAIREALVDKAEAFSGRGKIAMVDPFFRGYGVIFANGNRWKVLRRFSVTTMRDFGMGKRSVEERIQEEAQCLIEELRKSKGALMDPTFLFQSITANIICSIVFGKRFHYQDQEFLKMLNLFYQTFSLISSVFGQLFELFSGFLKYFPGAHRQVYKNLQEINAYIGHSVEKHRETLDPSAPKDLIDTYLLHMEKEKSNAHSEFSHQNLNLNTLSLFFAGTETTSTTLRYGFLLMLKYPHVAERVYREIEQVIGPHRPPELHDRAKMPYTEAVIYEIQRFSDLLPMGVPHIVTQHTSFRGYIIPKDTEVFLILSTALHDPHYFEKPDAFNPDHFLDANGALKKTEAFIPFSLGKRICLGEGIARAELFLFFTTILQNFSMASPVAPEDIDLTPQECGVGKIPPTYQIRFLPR

CC(C)(c1ccccc1)N1CCCCC1 [2-phenyl-2-(1-piperidinyl) propane, reference compound]
IC50 [1]: 8900 nM

CC(=O)N1CCN(c2ccc(OCC3COC(Cn4ccnc4)(c4ccc(Cl)cc4Cl)O3)cc2)CC1 (stereo not drawn) [Ketoconazole, reference compound]
IC50 [2]: 11 nM | Fold Shift IC50 (-NADPH) / IC50 (+NADPH) [3]: 0.68 | IC50 [3]: 8.4 nM | IC50 [4]: 10 nM | IC50 shift ([5]; Fold Shift IC50 (-NADPH) / IC50 (+NADPH)): 0.8 | IC50 ([5]; Time dependent CYP3A4/5 IC50 + NADPH): 16 nM | IC50 ([5]; Time dependent CYP3A4/5 IC50 - NADPH): 13 nM

CC(C)(C)[C@H](NC(=O)C(F)(F)F)C(=O)N1C[C@H]2[C@@H]([C@H]1C(=O)N[C@H](C#N)C[C@@H]1CCNC1=O)C2(C)C [Nirmatrelvir, nirmatrelvir, reference compound]
EC50 [6, 12]: > 2000 nM | EC50 ([6]; read-out: Antiviral EC50 (plaque assay) with Pgp inhibitor): 530 nM | Ext Data Fig 2f dose response (0 µM = 100) ([6]; concentration 0.01 µM): 108.0460 and 101.2658 and 103.7975 and 95.0617 and 93.8272 and 95.6522 | Ext Data Fig 2f dose response (0 µM = 100) ([6]; concentration 0.02 µM): 90.8046 and 108.8608 and 111.3924 and 104.9383 and 98.7654 and 104.3478 | Ext Data Fig 2f dose response (0 µM = 100) ([6]; concentration 0.04 µM): 97.7011 and 96.2025 and 105.0633 and 97.5309 and 90.1235 and 85.5072 | Ext Data Fig 2f dose response (0 µM = 100) ([6]; concentration 0.08 µM): 93.1034 and 89.8734 and 106.3291 and 109.8765 and 100.0000 and 102.8986 | Ext Data Fig 2f dose response (0 µM = 100) ([6]; concentration 0.3 µM): 104.5977 and 108.8608 and 102.5316 and 58.0247 and 83.9506 and 71.0145 | antiviral activity (lung viral burden), mild model [7]: no antiviral activity

CO/N=C(/c1ccc2cc(OC)ccc2c1)C1CCCN(C2CCCC2)C1 (stereo not drawn) [WEHI-P2]
IC50 (UbRh) SARS-CoV-2 PLpro [8]: submicromolar | inhibition of SARS-CoV-2 PLpro, UbRh dose-response replicate value ([8]; Conc 0.00498 µM): -15.8303 and -11.7404 and -10.1452 and -13.4396 and 0.4248 and 3.42 and -8.071 and -0.3979 | inhibition of SARS-CoV-2 PLpro, UbRh dose-response replicate value ([8]; Conc 0.0149 µM): -13.9221 and -7.6283 and -8.496 and -15.6937 and -2.169 and 1.092 and -11.0387 and -1.093 | inhibition of SARS-CoV-2 PLpro, UbRh dose-response replicate value ([8]; Conc 0.0448 µM): -10.8825 and -7.692 and -10.0063 and -17.0131 and 5.235 and 6.569 and -0.8163 and 5.0409 | inhibition of SARS-CoV-2 PLpro, UbRh dose-response replicate value ([8]; Conc 3.63 µM): 108.558 and 106.946 and 112.788 and 102.006 and 101.573 and 101.518 and 102.655 | inhibition at 3.63 µM ([8]; Conc 3.63 µM, read-out: inhibition of SARS-CoV-2 PLpro, UbRh dose-response replicate value): 110% | inhibition of SARS-CoV-2 PLpro, UbRh dose-response replicate value ([8]; Conc 98 µM): 126.525 and 125.26 and 122.237 and 129.703 and 110.886 and 110.306 and 111.038 and 109.523 | inhibition of SARS-CoV-2 PLpro, UbRh dose-response replicate value ([8]; Conc […]): 108.844 | IC50 [8]: 397 nM | IC50 ([8]; Supplementary Fig. 2b): 645 nM | inhibition at […] ([8]; read-out: inhibition of SARS-CoV-2 PLpro, UbRh dose-response replicate value): 127% and 123% and 74.5% | EC50 [9]: 11000 nM | FRET EC50 (cellular) [9]: micromolar cellular activity | EC50 [6, 12]: > 2000 nM | Molar Mass (kDa) [10]: 34.0141 kDa and 34.3179 kDa and 34.334 kDa | observed molar mass of PLpro (SEC-MALS) [10]: 34.2 kDa

quercitin [reference compound]
IC50 [11]: 2300 nM
